# Measured values published in patent US20240366539A1, “METHODS FOR TREATING AUTISM SPECTRUM DISORDERS” (INSTITUT NATIONAL DE LA SANTÉ ET DE LA RECHERCHE MÉDICALE, priority 2021, published 2024).
# How the values were obtained:
# Oprm1^−/− mice [1] = experiment: Behavioral tests of social, repetitive and anxious behavior (oral NaBr, KBr; data not shown); details: mouse, in vivo
# Procedure: (§1) Mice were treated with vehicle (NaCl 0.9%; ip, 10 or 20 ml/kg), NaBr (Sigma-Aldrich, Saint-Quentin Fallavier, France) administered either chronically (once a day, 10, 30, 70, 125, 250 and 500 mg/kg; i.p. or per os, in a volume of 20 ml/kg—except for combination with VU0155041: […]) or acutely (250 mg/kg, 20 ml/kg), KBr (Sigma-Aldrich, Saint-Quentin Fallavier, France; 145 mg/kg; i.p., 20 ml/kg), bumetanide (R&D systems, Minneapolis, USA, 0.5 and 2 mg/kg; i.p., 20 ml/kg) or VU0155041 (Cayman Chemicals, Ann Arbor, USA, once a day, i.p., 1 mg/kg, 10 ml/kg). […] When treatment was given chronically, behavioral testing started 8 days after beginning of daily administration. Treatment was maintained for 8 to 18 consecutive days (see timelines in FIGS. 1 and 4), allowing thorough behavioral phenotyping. On testing days, or when treatment was given acutely, drugs (or vehicle) were administered 30 min before behavioral assays.
# (§2) Also, we assessed the behavioral effects of chronic administration of another bromide salt, KBr.
# [2] = dose of KBr equivalent to 250 mg/kg NaBr; pilot experiments
# From the text: as §2
# Oprm1^−/− mice [3] = experiment: Y-maze exploration; assay type: in vivo, mouse
# Procedure: as §1
# Y-maze exploration. Spontaneous alternation behavior was used to assess perseverative behavior (65-67). Each Y-maze consisted of three connected Plexiglas arms (15×15×17 cm) covered with distinct wall patterns (15 lx). Floors were covered with lightly sprayed fresh sawdust to limit anxiety. Each mouse was placed at the center of a maze and allowed to freely explore this environment for 5 min. The pattern of entries into each arm was quoted on video-recordings. Spontaneous alternations (SPA), i.e. successive entries into each arm forming overlapping triplet sets, alternate arm returns (AAR) and same arm returns (SAR) were scored, and the percentage of SPA, AAR and SAR was calculated as following: total/(total arm entries−2)*100.
# Oprm1^−/− mice [4] = experiment: Tail-immersion test; assay type: in vivo, mouse; details: 50° C., NaBr 70 mg/kg, VU0155041 1 mg/kg, alone or combined, chronic
# Procedure: as §1
# Tail-immersion test. Nociceptive thresholds were assessed by immersing the tail of the mice (5 cm from the tip) successively into water baths at 48° C., 50° C. and 52° C. The latency to withdraw the tail was measured at each temperature, with a cutoff of 10 s.
# Oprm1^−/− mice [5] = experiment: Three-chamber social preference test; assay type: in vivo, mouse
# Procedure: as §1
# Three-chamber social preference test. The test apparatus consisted of a transparent acrylic box (exterior walls blinded with black plastic film); partitions divided the box into three equal chambers (40×20×22.5 cm). Two sliding doors (8×5 cm) allowed transitions between chambers. Cylindrical wire cages (18×9 cm, 0.5 cm diameter-rods spaced 1 cm apart) were used to contain the mouse interactor and object (soft-toy mouse). The test was performed in low-light conditions (15 lx) to minor anxiety. Stimulus wild-type mice were habituated to confinement in wire cages for 2 days before the test (20 min/day). On testing day, the experimental animal was introduced to the middle chamber and allowed to explore the whole apparatus for a 10-min habituation phase (wire cages empty) after the sliding doors were raised. The experimental mouse was then confined back in the middle-chamber while the experimenter introduced an unfamiliar wild type age and sex-matched animal into a wire cage in one of the side-chambers and a soft toy mouse (8×10 cm) in the second wire cage as a control for novelty. Then the experimental mouse was allowed to explore the apparatus for a 10-min interaction phase. The time spent in each chamber, the time spent in nose contact with each wire cage (empty: habituation; containing a mouse or a toy: interaction), as well as the number of these nose contacts were scored a posteriori on video recordings using an ethological keyboard (Labwatcher®, View Point, Lyon, France) by trained experimenters. […] The relative position of stimulus mice (versus toy) was counterbalanced between groups.
# Oprm1^−/− mice [6] = experiment: Direct social interaction test; assay type: in vivo, mouse; details: for social interaction in wild-type controls: Oprm1+/+ mice
# Procedure: as §1
# When assessing effects of chronic administration, experiments were performed successively (timelines in FIGS. 1 and 4) (51, 60). Testing order was chosen to minimize the incidence of anxiety on later assays. Direct social interaction and novelty suppressed feeding were performed in 4 equal square arenas (open fields, 50×50 cm) separated by 35 cm-high opaque grey Plexiglas walls over a white Plexiglas platform (View Point, Lyon, France). Stimulus mice used for the three-chamber test were 8-14-week-old grouped-housed male or female wild-type mice, socially naive to the experimental animals.
# Direct social interaction test. On testing day, a pair of unfamiliar mice (not cage mates, age-, sex- and treatment-matched) was introduced in each arena for 10 min (15 lx). Each arena received a black plastic floor (transparent to infrared). […] The mean duration of nose and paw contacts was calculated from previous data (61-63).
# rodent models of ASD = details: preclinical studies; cited from earlier work
# Oprm1^−/− mice [7] = experiment: Marble-burying; assay type: in vivo, mouse; details: Oprm1−/− mice; chronic NaBr 10-500 mg/kg or bumetanide 0.5 and 2 mg/kg
# Procedure: as §1
# Marble-burying. Marble burying was used as a measure of perseverative behavior (68). Mice were introduced individually in transparent cages (21×11×17 cm) containing 20 glass marbles (diameter: 1.5 cm) evenly spaced on 4-cm deep fresh sawdust. To prevent escapes, each cage was covered with a filtering lid. Light intensity in the room was set at 40 lux. The animals were removed from the cages after 15 min, and the number of marbles buried more than half in sawdust was quoted.
# Oprm1^−/− mice [8] = experiment: Motor stereotypies; assay type: in vivo, mouse
# Procedure: as §1
# Motor stereotypies. To detect motor stereotypies in mutant versus wild-type animals, mice were individually placed in clear standard home cages (21×11×17 cm) filled with 3-cm deep fresh sawdust for 10 min (64). Light intensity was set at 30 lux. Trained experimenters scored numbers of head shakes, as well as rearing, burying, grooming, circling episodes and total time spent burying by direct observation.
# patients = details: cited from earlier work
# Oprm1^−/− mice [9] = experiment: Novelty-suppressed feeding; assay type: in vivo, mouse; details: chronic NaBr (since the lowest dose tested) or bumetanide
# Procedure: as §1
# Novelty-suppressed feeding. Novelty-suppressed feeding (NSF) was measured in 24-hr food-deprived mice, isolated in a standard housing cage for 30 min before individual testing. Three pellets of ordinary lab chow were placed on a white tissue in the center of each arena, lit at 60 lx. Each mouse was placed in a corner of an arena and allowed to explore for a maximum of 15 min. Latency to feed was measured as the time necessary to bite a food pellet. Immediately after an eating event, the mouse was transferred back to home cage (free from cage-mates) and allowed to feed on lab chow for 5 min. Food consumption in the home cage was measured.
# [10] = Oprm1−/− mice, NaBr 70 mg/kg, VU0155041 1 mg/kg, alone or combined, once daily, chronic
# [11] = chronic NaBr 10-500 mg/kg or bumetanide 0.5 and 2 mg/kg
# [12] = Oprm1−/− mice, chronic NaBr 10-500 mg/kg or bumetanide 0.5 and 2 mg/kg
# [13] = chronic NaBr (since lowest dose, 10 mg/kg) or bumetanide 0.5 and 2 mg/kg
# [14] = Oprm1−/− mice, chronic once daily, NaBr 10-500 mg/kg (effect from 125 mg/kg) or bumetanide 0.5 and 2 mg/kg, D9
# [15] = Oprm1−/− mice, one week after cessation of chronic treatment (NaBr over 70 mg/kg, highest doses; bumetanide depending on the dose)
smiles,measurement,setting,value
"[Br-].[K+] [KBr, potassium bromide]","social, repetitive and anxious behavior, compared with NaBr treatment",Oprm1^−/− mice [1],"fully replicated, if not exceeded, by KBr"
same,toxicity,[2],toxic
O=C(Nc1cc(Cl)cc(Cl)c1)C1CCCC[C@H]1C(=O)O (stereo partly shown) [VU0155041],perseverative same arm returns,Oprm1^−/− mice [3]; chronic VU0155041 1 mg/kg,sufficient to suppress perseverative same arm returns
same,flicking latency (nociceptive threshold),Oprm1^−/− mice [4],ineffective
same,frequency of nose contacts with the mouse versus the toy,"Oprm1^−/− mice [5]; NaBr 70 mg/kg or VU0155041 1 mg/kg, once daily, chronic",sufficient to restore more frequent nose contacts with the mouse versus the toy
same,duration of nose contacts with the mouse versus the toy,"Oprm1^−/− mice [5]; NaBr 70 mg/kg, VU0155041 1 mg/kg, alone or combined, once daily, chronic",increased the duration of nose contacts with the mouse to that of the toy
same,duration of nose contacts,Oprm1^−/− mice [6]; [10],partially rescued the duration of their nose contacts
same,grooming episodes after social contact,Oprm1^−/− mice [6]; [10],suppressed grooming episodes after a social contact
same,"effect in the social interaction test, pilot experiment",Oprm1^−/− mice [6]; liminal dose of VU0155041 (1 mg/kg i.p.),no detectable effect in the social interaction test
NC[C@H](CC(=O)O)c1ccc(Cl)cc1 [arbaclofen],autistic-like behaviors / phenotype in animal models,rodent models of ASD,improve autistic-like behaviors in animal models
CCCCNc1cc(C(=O)O)cc(S(N)(=O)=O)c1Oc1ccccc1 [bumetanide],perseverative same arm returns,Oprm1^−/− mice [3]; [11],globally failed to suppress those
same,excessive marble burying,Oprm1^−/− mice [7],failed to suppress excessive marble burying in Oprm1^−/− mice
same,number of head shakes,Oprm1^−/− mice [8]; [12],suppressed circling and head shakes in mutant mice
same,stereotypic circling episodes,Oprm1^−/− mice [8]; [12],suppressed circling and head shakes in mutant mice
same,number of rearing episodes,"Oprm1^−/− mice [8]; both mouse lines (Oprm1−/− and Oprm1+/+), chronic NaBr or bumetanide",reduced the number of rearing episodes in both mouse lines
same,autistic behavior in small cohorts of patients,patients,relieve autistic behavior in small cohorts of patients
same,clinical benefit in a larger clinical trial,patients,"failed to be confirmed in a larger clinical trial, except for a reduction of repetitive behavior"
same,autistic-like behaviors / phenotype in animal models,rodent models of ASD,improve autistic-like phenotype in rodent models of ASD
same,social preference ratio,Oprm1^−/− mice [5]; [11],significant but partial recovery of social preference ratio
same,duration of nose contacts with the mouse versus the toy,Oprm1^−/− mice [5]; [13],"dose-dependently increased the duration of nose contacts with the mouse, but failed to reduce the duration of nose contacts with the toy"
same,number of nose contacts with the mouse versus the toy,Oprm1^−/− mice [5]; [13],at the lowest dose restored a preference for making more frequent nose contacts with the mouse over the toy
same,latency to eat,Oprm1^−/− mice [9]; Oprm1−/− mice,had no detectable effect on either latency to eat
same,food intake,Oprm1^−/− mice [9]; both mouse lines,had no detectable effect
same,social interaction in wild-type controls,"Oprm1^−/− mice [6]; chronic once daily, NaBr 10-500 mg/kg or bumetanide 0.5 and 2 mg/kg",showed deleterious effects on social interaction parameters in WT controls
same,social interaction in wild-type controls,"Oprm1^−/− mice [6]; chronic once daily, NaBr 10-500 mg/kg or bumetanide 0.5 and 2 mg/kg, listed as Bumetanide","at the highest dose, it impaired social interaction in wild-type controls"
same,social interaction deficit,"Oprm1^−/− mice [6]; Oprm1−/− mice, chronic once daily i.p., NaBr 10-500 mg/kg or bumetanide 0.5 and 2 mg/kg, D9",had only partial effects
same,number of nose contacts,"Oprm1^−/− mice [6]; Oprm1−/− mice, chronic once daily, NaBr 10-500 mg/kg (effect from 125 mg/kg) or bumetanide 0.5 and 2 mg/kg (effect at low dose), D9",increased the number of nose contacts
same,mean duration of nose contacts,Oprm1^−/− mice [6]; [14],failed to increase significantly the duration of nose contacts
same,mean duration of paw contacts,Oprm1^−/− mice [6]; [14],failed to increase significantly
same,number of paw contacts,Oprm1^−/− mice [6]; [14],failed to increase significantly
same,grooming after social contact,"Oprm1^−/− mice [6]; Oprm1−/− mice, chronic once daily, NaBr 10-500 mg/kg or bumetanide 0.5 and 2 mg/kg, D9","suppressed grooming episodes, notably those occurring after social contact, since the lowest dose tested"
same,duration of nose contacts,Oprm1^−/− mice [6]; [15],beneficial effects of bumetanide were still detectable
same,grooming after social contact,Oprm1^−/− mice [6]; [15],still detectable
same,number of following episodes,"Oprm1^−/− mice [6]; chronic once daily, NaBr 10-500 mg/kg (both mouse lines) or bumetanide (at low dose), D9",increased
